{"source": "patent US20110224151A1", "about": "“Polymeric Micelle Composition for Treatment of Resistant Cancer and Preparation Method of the Same” (SAMYANG CORPORATION, priority 2008, published 2011)", "test_system": "DLD-1 colon cancer cells", "assay": "Inhibition of P-glycoprotein: paclitaxel cytotoxicity with and without cyclosporin", "type": "cell-based, human", "conditions": "for IC50: Homo sapiens", "data": [{"smiles": "CC(=O)O[C@H]1C(=O)[C@@]2(C)[C@H]([C@H](OC(=O)c3ccccc3)[C@]3(O)C[C@H](OC(=O)[C@H](O)[C@@H](NC(=O)c4ccccc4)c4ccccc4)C(C)=C1C3(C)C)[C@]1(OC(C)=O)CO[C@@H]1C[C@@H]2O", "note": "[paclitaxel]", "values": [{"measurement": "decrease of IC50 with cyclosporin as compared to paclitaxel alone", "setting": "1.88 μg/mL cyclosporin, DLD-1 cells", "result": 15, "unit": "times"}, {"measurement": "IC50", "setting": "DLD-1, DLD-1 cells treated with 1.88 μg/mL cyclosporin", "result": 0.011, "unit": "µg/mL"}, {"measurement": "IC50", "setting": "DLD-1, paclitaxel administered alone, DLD-1 cells", "result": 0.16, "unit": "µg/mL"}]}]}
